“Also recorded” adds a separate entry of the source. Like-named read-outs stand apart in the source and are kept apart here.
Key:
[1] = tested on: primary cultured pig hepatocytes; test: Steroid metabolism in primary cultured pig hepatocytes, LC-TOF-MS of cell culture medium; conditions: for Peak height of the ion chromatogram of the steroid metabolite in cell culture medium, C: 48 h incubation in absence of enzyme inhibitors, 10 µM parent steroid, Mean ± SD
[2] = Cytotoxicity of steroids and HSD inhibitors (CellTiter-Glo Luminescent Cell Viability Assay); conditions: male, Large White, pig
Protocol: Primary pig hepatocytes were isolated from Large White male pigs (3–5 days old) using procedure described by Chen et al.. The experimental protocol for using animals was approved by the Animal Ethics Committee of the China Agricultural University, Beijing, China (permission number: 2011-11-23-1). […] Approximately 5×10^6 cells were plated into 10 cm Petri dishes with 10 ml of Dulbecco modified Eagle’s medium (DMEM) containing 20% fetal bovine serum (FBS) supplemented with insulin (10 mg/L), penicillin (100 U/mL) and streptomycin (100 µg/mL). Hepatocytes were incubated for 24 h in a humidified atmosphere at 37°C with 5% of CO2.
After the incubation, the primary pig hepatocytes were washed three times with phosphate buffer saline solution (PBS) before they were treated with steroids and/or inhibitors. In steroid metabolism studies, hepatocytes were incubated in 10 ml of basal growth medium containing phenol red-free DMEM with 10% of charcoal treated FBS fortified with 10 µM (final concentration) of androstenone, 17β-estradiol or dihydrotestosterone. In the inhibition experiments, 10 µM (final concentration) of trilostane or apigenin, the specific inhibitors of 3βHSD and 17βHSD respectively, were added to hepatocytes simultaneously with androstenone, 17β-estradiol or dihydrotestosterone. Solutions of both, the inhibitors and steroids, were prepared in methanol. […] In the cytotoxicity text, the steroids were incubated with different concentrations of inhibitors (1, 10, 25 and 50 µM) for 48 h. The cell viability was analyzed using CellTiter-Glo Luminescent Cell Viability Assay (Promega, Madison, WI) reagent following manufacture’s protocol. The cell culture medium was collected at the following time points: 0, 6, 12, 18, 24, 30, 36, 42 and 48 h after adding steroids and/or inhibitors, and was stored at −80°C until metabolites analysis. Cells treated with basal growth medium were used as control. The experiments were repeated in three different days. Experiments on each of the three days were conducted in triplicate.

[3] = tested on: primary cultured pig hepatocytes; conditions: male, Large White, 10 µM
3βHSD = target: T1, 3βHSD (Sus scrofa, UniProt Q9N119); test: Inhibition of steroid glucuronide metabolite formation in pig hepatocytes by the 3βHSD inhibitor; format: cell-based
T1 construct: endogenous in cells; host or cells: primary hepatocytes of Large White male pigs
T1 sequence (Q9N119 1-373): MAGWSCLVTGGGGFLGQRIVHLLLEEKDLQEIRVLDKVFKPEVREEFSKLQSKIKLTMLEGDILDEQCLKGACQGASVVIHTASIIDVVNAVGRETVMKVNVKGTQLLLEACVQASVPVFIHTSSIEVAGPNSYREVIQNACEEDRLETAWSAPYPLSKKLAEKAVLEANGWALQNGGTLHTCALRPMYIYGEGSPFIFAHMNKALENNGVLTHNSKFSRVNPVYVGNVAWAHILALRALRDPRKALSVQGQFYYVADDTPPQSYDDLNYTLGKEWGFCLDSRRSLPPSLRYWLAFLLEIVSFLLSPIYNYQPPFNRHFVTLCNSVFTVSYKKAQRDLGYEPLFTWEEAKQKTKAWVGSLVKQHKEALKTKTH
Protocol: (§1) The experiments were repeated in three different days.
(§2) Extraction procedure for steroid metabolites was as follows: two mL of cell culture medium was taken in duplicate from each hepatocytes incubation and split into two samples, 1 mL per sample. One sample was treated with 0.1 mL of 30% trichloroacetic acid (TCA) to precipitate protein. The protein precipitation procedure was optimized by analyzing protein residues using HPLC at ultraviolet wavelength (240 nm). Another sample was pre-treated with β-glucuronidase prior to protein precipitation. The pre-treatment involved incubation with 2 mL of PBS buffer (pH = 5.0) in the presence of β-glucuronidase (2.08 µkat) for 16 h at 37°C. The samples were centrifuged at 17226 g for 10 min. All of the supernatants were collected and loaded onto a SPE cartridge (Bond Elut-C18, 500 mg/3 mL, Agilent, Lake Forest, CA, USA) preconditioned with 3 mL of methanol and water. The cartridges were washed with 3 mL of water and 3 mL 5% of methanol and then vacuum dried. The analytes were eluted with 9 mL of acetonitrile (ACN). The elutants were evaporated under nitrogen and reconstituted with 400 µL of 62.5% methanol. Solvents were passed through 0.22 µm filter paper (Jinteng company, Tianjin, China), and then transferred to inserts for analysis. The recoveries were determined by analyzing spiked samples in a basal medium. The recoveries for androstenone, 17β-estradiol and dihydrotestosterone were in a range of 60–95%.
(§3) Steroid metabolites were analyzed by LC-TOF-MS (QSTAR Elite, AB Sciex, ON, Canada) equipped with an electrospray ion source (TurboIonSpray) and controlled by Analyst QS 2.0 software. ESI source was run on both, a positive and negative mode. Spectrometry parameters were as follows: ion source GS1 and GS2 were 0.41 and 0.34 MPa, respectively. Curtain gas was 0.14 MPa. Collision gas was 0.04 MPa. All the gases were supplied with nitrogen (purity≥99.995%). IonSpray voltage was 5500 V (ESI+) and −4200 V (ESI–). Ion source temperature was 500°C. Declustering Potential (DP) was 60 V (ESI+) and −60 V (ESI–). The Q1 mass monitoring was conducted using a scan mode in the range from 200 to 600 m/z. Mass intensity above 100 counts was set for acquiring product ions on TOF analyzer. An information dependent acquisition (IDA) method was set to optimize data acquisition.
(§4) Chromatographic separation was conducted using HPLC coupled to mass spectrometry (1200 SL, Agilent Technologies, USA) equipped with a binary pump, vacuum solvent degasser, column oven and autosampler (Agilent Technologies, Waldbronn, Germany). The column used was Zorbax Eclipse Plus C18 (2.1×100 mm, 3.5 µm) with a guard column (2.1×12.5 mm, 5 µm) (Agilent Technologies, USA). For the ESI+ mode, the mobile phase was 0.1% formic acid in water (A) and methanol (B). For the ESI– mode, the mobile phase was 0.1% ammonium in water (A) and methanol (B). The linear gradient used was as follows: 50% to 95% solvent B at 0–5 min; 95% solvent at 9 min, 50% solvent B at 9.1 and 15 min. The flow rate was 300 µL/min, and the sample injection volume was 20 µL.

17βHSD = test: Inhibition of steroid glucuronide metabolite formation in pig hepatocytes by the 17βHSD inhibitor; format: cell-based
Protocol: as §1, §2, §3, §4

[4] = 10 µM inhibitor with 17β-estradiol
[5] = 10 µM inhibitor with dihydrotestosterone
[6] = 48 h, 10 µM trilostane with 10 µM 17β-estradiol, Mean ± SD
[7] = 48 h, 10 µM apigenin with 10 µM 17β-estradiol, Mean ± SD

Row | Compound | Peak height of the ion chromatogram of the steroid metabolite in cell culture medium, C [1] [cps/1000] | viability at 48 h, 1 µM [2] [%] | viability at 48 h, 10 µM [2] [%] | viability at 48 h, 25 µM [2] [%] | viability at 48 h, 50 µM [2] [%] | also measured
1 | C[C@]12CC[C@@H]3c4ccc(O[C@@H]5O[C@H](C(=O)O)[C@@H](O)[C@H](O)[C@H]5O)cc4CC[C@H]3[C@@H]1CCC2=O [Estrone glucuronide, estrone-3-glucuronide] | 16.5±2.2 | – | – | – | – | –
2 | C[C@]12CCC(=O)C[C@@H]1CC[C@@H]1[C@@H]2CC[C@]2(C)C=CC[C@@H]12 [Androstenone, 5α-androst-16-ene-3-one] | – | 90.6 ± 3.8 | 89 ± 7.2 | 77.2 ± 0.6 | 78.7 ± 6.8 | Metabolite identified [3]: hydroxylated to 3β-A prior to glucuronidation
3 | 5α-androst-16-en-3β-glucuronide [Androstenone glucuronide] | 3.4±0.5 | – | – | – | – | –
4 | C[C@]12CC[C@H]3[C@@H](CC[C@@]45O[C@@H]4C(O)=C(C#N)C[C@]35C)[C@@H]1CC[C@@H]2O [Trilostane, trilostane] | – | 91.8 ± 0.1 | 82.4 ± 2.1 | 79.1 ± 2.9 | 69.2 ± 1.8 | Inhibition of E2-G and E1-G formation (3βHSD; [4]): no significant inhibition; Effect on DHT-G formation (3βHSD; [5]): greatly inhibited; Decrease in the formation of androstenone metabolite (3βHSD; 10 µM inhibitor, cell culture medium): 70%; Reduction of DHT-G formation (3βHSD; 10 µM inhibitor, hepatocytes): ~86%; Peak height of Estradiol 3β-glucuronide in cell culture medium (3βHSD; [6]): 2.7±0.4 cps/1000; Peak height of Estrone glucuronide in cell culture medium (3βHSD; [6]): 13.5±1.7 cps/1000; Peak height of Androstenone glucuronide in cell culture medium (3βHSD; 48 h, 10 µM trilostane with 10 µM androstenone, Mean ± SD): 1.0±0.6 cps/1000; Peak height of Dihydrotestosterone 17β-glucuronide in cell culture medium (3βHSD; 48 h, 10 µM trilostane with 10 µM dihydrotestosterone, Mean ± SD): 1.6±0.2 cps/1000
5 | C[C@]12CC[C@@H]3c4ccc(O[C@@H]5O[C@H](C(=O)O)[C@@H](O)[C@H](O)[C@H]5O)cc4CC[C@H]3[C@@H]1CC[C@@H]2O [Estradiol 3β-glucuronide, β-estradiol-3-glucuronide] | 3.1±0.8 | – | – | – | – | –
6 | C[C@]12CC[C@@H]3c4ccc(O)cc4CC[C@H]3[C@@H]1CC[C@@H]2O [17β-Estradiol] | – | 109 ± 4.8 | 91.6 ± 0.4 | 89.8 ± 8 | 83.6 ± 1.6 | Share of 17β-estradiol oxidized at C-17 to estrone, forming E1-G [3]: over 80%; Share of 17β-estradiol undergoing direct phase II metabolism, forming E2-G [3]: Less than 20%; Parent steroid in cell culture medium after incubation with hepatocytes ([3]; 6 h): No 17β-estradiol was found
7 | C[C@]12CCC(=O)C[C@@H]1CC[C@@H]1[C@@H]2CC[C@]2(C)[C@@H](O)CC[C@@H]12 [Dihydrotestosterone] | – | 96.7 ± 0.1 | 84.3 ± 3.9 | 79.1 ± 2.2 | 76.1 ± 4.7 | Metabolite identified ([1]; 10 µM steroid, LC-TOF-MS, cell culture medium): 5α-dihydrotestosterone-17β-glucuronide; Parent steroid in cell culture medium after incubation with hepatocytes ([1]; 10 µM steroid, after 6 h of incubation): rapidly metabolized; also recorded: No dihydrotestosterone was found
8 | O=c1cc(-c2ccc(O)cc2)oc2cc(O)cc(O)c12 [Apigenin, apigenin] | – | 97.7 ± 3.2 | 83.5 ± 5.9 | 64.2 ± 1.7 | 69.8 ± 0.9 | Inhibition of E2-G and E1-G formation (17βHSD; [4]): no significant inhibition; Effect on the level of androstenone metabolite (17βHSD; 10 µM inhibitor with androstenone): did not affect significantly; Effect on DHT-G level / formation (17βHSD; [5]): did not have any effect; Peak height of Estradiol 3β-glucuronide in cell culture medium (17βHSD; [7]): 2.6±0.1 cps/1000; Peak height of Estrone glucuronide in cell culture medium (17βHSD; [7]): 15.3±1.1 cps/1000; Peak height of Androstenone glucuronide in cell culture medium (17βHSD; 48 h, 10 µM apigenin with 10 µM androstenone, Mean ± SD): 3.7±0.9 cps/1000; Peak height of Dihydrotestosterone 17β-glucuronide in cell culture medium (17βHSD; 48 h, 10 µM apigenin with 10 µM dihydrotestosterone, Mean ± SD): 11.5±0.5 cps/1000

— PMC4295843, “Metabolism of Androstenone, 17β-Estradiol and Dihydrotestosterone in Primary Cultured Pig Hepatocytes and the Role of 3β-Hydroxysteroid Dehydrogenase in This Process” (PLoS ONE, 2015)
